# Data reported in patent publication US20170065517A1, “COMPOSITIONS FOR […] AGENTS ACROSS THE ORAL MUCOSA AND METHODS OF USE THEREOF” (PARATEK PHARMACEUTICALS, INC., priority 2004, published 2017).
# Assay: Zolpidem membrane assay (lipid-coated dodecane membrane between donor and acceptor cell)
# Type: in vitro ADME
# Conditions: zolpidem tartrate solutions
# Method: Topics Med. Chem., 1:277-351 (2001). This assay uses a lipid-coated membrane to predict lipid mucosal membrane penetration. The membrane apparatus consists of a dodecane membrane sandwiched between a donor and acceptor cell. The lipid-coated membrane is less porous then the mucous membrane of the oral cavity. Thus, the enhancement seen in the membrane assay is very likely to be magnified in vivo.
# Membrane assays were performed using zolpidem tartrate solutions at a pH of 5.8, 6.8, and 7.8. The alkaline pH values of 7.8 were adjusted using freshly prepared 0.01 M sodium bicarbonate/sodium carbonate buffer solution. The acidic pH of 5.8 was achieved using a 0.01 M acetate buffer solution (a mixture of sodium acetate and acetic acid). The neutral pH of 6.8 was achieved by adding 0.01 M acetate solution to the sodium bicarbonate/sodium carbonate buffer solution. Permeation through the membrane was measured by determining the concentration of zolpidem in the acceptor cell and is expressed as Pc (effective permeability in centimeters per second).
structure (smiles),measurement,setting,value
Cc1ccc(-c2nc3ccc(C)cn3c2CC(=O)N(C)C)cc1 [zolpidem],increase of effective permeability (Pc),pH 7.8 relative to pH 5.8,129%
same,increase of effective permeability (Pc),pH 7.8 relative to pH 6.8,more than 53%
